Experimental data from patent US11566029B2, “Pyrazolo[1,5-a]pyrimidine-5,7-diamine compounds as CDK inhibitors and their therapeutic use” (CANCER RESEARCH TECHNOLOGY LIMITED, priority 2014, dated 2023).
Counter-ions that a name gives are not always drawn. Like-named read-outs stand apart in the source and are kept apart here.

Assays:
CDK1/cycA1 = target: T1, CDK1/cycA1 (Homo sapiens, UniProt P06493); assay: In vitro kinase assay (PKLight luciferase ATP readout), CDK1; type: biochemical
T1 construct: purchased ProQinase GmbH
Protocol: (§1) Purified recombinant CDK1/cycA1, CDK2/cycA1, CDK4/cycD1, CDK5/p35NCK, CDK6/cycD1, CDK7/CycH/MAT1, and CDK9/CycT1 were purchased from ProQinase GmbH. Kinase assays were performed according to manufacturer's protocols. Rb-CTF (ProQinase GmbH) (cat number: 0040-0000-6) was used as the kinase substrate for CDK1, CDK2, CDK4, and CDK6 kinases. […] A luciferase assay (PKLight assay; Cambrex) was used to determine ATP remaining at the end of the kinase reaction, which provides a measure of kinase activity, according to the manufacturer's protocols.
(§2) Kinase assays were carried out by incubation of increasing amounts of test compound with purified recombinant CDK-Cyclin complex, followed by measurement of free ATP remaining in the reaction using the luciferase assay kit (PKLight, Cambrex) which therefore provided a measure of inhibition for the specific CDK.
(§3) 5 μL of 1× kinase buffer (Cell Signalling Technologies) was mixed with 200 ng CDK1, 200 ng CDK2, 50 ng CDK4, 100 ng CDK5, or 200 ng CDK6 with 5 μg Rb-CTF and 300 ng CDK7 or 200 ng CDK9 with 500 μM RNA Poll II CTD peptide. […] The mixture was incubated at 30° C. for 30 minutes. The reaction is stopped with 20 μL of Stop Solution (provided in the PKLight kit) for 10 minutes at room temperature. Then 40 μL of the luciferase mix was added to the reaction mixture which was incubated for a further 10 minutes at room temperature and measured using the Tecan Infinite 2000 plate reader. GraphPad Prism Software was used to generate standard curve and determine the IC50's for each CDK.

CDK2/cycA1 = target: T2, CDK2/cycA1 (Homo sapiens, UniProt P24941); assay: In vitro kinase assay (PKLight luciferase ATP readout), CDK2; type: biochemical; details: ATP at Km; read-out: In vitro Kinase Inhibition CDK2 IC50
T2 construct: purchased ProQinase GmbH
Protocol: as §1, §2, §3

CDK7/CycH/MAT1 = target: T3, CDK7/CycH/MAT1 (Homo sapiens, UniProt P50613); assay: In vitro kinase assay (PKLight luciferase ATP readout), CDK7; type: biochemical; details: for IC50: ATP at Km, read-out: In vitro Kinase Inhibition CDK7 IC50; for Selectivity CDK1/CDK7: ratio of CDK1 IC50 to CDK7 IC50; for Selectivity CDK2/CDK7: ratio of CDK2 IC50 to CDK7 IC50
T3 construct: purchased ProQinase GmbH
Protocol: as §1, §2, §3

MCF7 cells = assay: Cell growth inhibition assay (sulforhodamine B), MCF7; type: cell-based; details: Homo sapiens
Protocol: (§4) All cells were purchased from the American Type Culture Collection (ATCC) and MCF7 cells were routinely cultured in Dulbecco's Modified Eagle's Medium (DMEM) supplemented with 10% fetal calf serum (FCS) (First Link) and HCT116 cells were routinely cultured in Roswell Park Memorial Instititute Medium (RPMI) supplemented with 10% FCS. Cell growth was assessed using a known sulforhodamine B assay (see, e.g., Skehan et al., 1990).
(§5) MCF-7 cells purchased from ATCC (USA) were routinely passaged in DMEM, supplemented with 10% FCS and HCT116 cells purchased from ATCC (USA) were routinely passaged in RPMI supplemented with 10% FCS and kept in a 37° C. incubator with 5% CO2. The growth assay for both cell lines was performed in the appropriate media using the exact same protocol as described here. For the growth assay, 5000 cells were seeded into each well of 96-well plates in DMEM containing 10% FCS. Test compounds prepared in DMSO were added to the medium at concentrations ranging from 0.00038-100 μM. The cells were incubated for a further 72 hours, at which time they were fixed by the addition of 100 μL/well of ice-cold 40% trichloroacetic acid (TCA). The plates were left for 1 hour at 4° C., washed in water and 100 μL of 0.4% (w/v) sulforhodamine (SRB; Sigma-Aldrich, UK) prepared in 1% acetic acid was added. Plates were washed in 1% acetic acid to remove excess SRB reagent, air dried, and bound dye was solubilized by the addition of 100 μL of 10 mM tris base. The plates were read at 492 nm using a plate reader.

HCT116 cells = assay: Cell growth inhibition assay (sulforhodamine B), HCT116; type: cell-based; details: Homo sapiens, HCT-116
Protocol: as §4, §5

CDK4/cycD1 = target: T4, CDK4/cycD1 (Homo sapiens, UniProt P11802); assay: In vitro kinase assay (PKLight luciferase ATP readout), CDK4; type: biochemical; details: ATP at Km; three experiments
T4 construct: purchased ProQinase GmbH
Protocol: as §1, §2
as §3, with “The reaction is stopped with 20 μL of Stop Solution (provided in the PKLight kit) for 10 minutes at room temperature.” left out, “GraphPad Prism Software was used to generate standard curve and determine the IC50's for each CDK.” left out

CDK5/p35NCK = target: T5, CDK5/p35NCK (Homo sapiens, UniProt Q00535); assay: In vitro kinase assay (PKLight luciferase ATP readout), CDK5; type: biochemical; details: ATP at Km; three experiments
T5 construct: purchased ProQinase GmbH
Protocol: as §1, §2
as §3, with “The reaction is stopped with 20 μL of Stop Solution (provided in the PKLight kit) for 10 minutes at room temperature.” left out, “GraphPad Prism Software was used to generate standard curve and determine the IC50's for each CDK.” left out

CDK6/cycD1 = target: T6, CDK6/cycD1 (Homo sapiens, UniProt Q00534); assay: In vitro kinase assay (PKLight luciferase ATP readout), CDK6; type: biochemical; details: ATP at Km; three experiments
T6 construct: purchased ProQinase GmbH
Protocol: as §1, §2
as §3, with “The reaction is stopped with 20 μL of Stop Solution (provided in the PKLight kit) for 10 minutes at room temperature.” left out, “GraphPad Prism Software was used to generate standard curve and determine the IC50's for each CDK.” left out

[1] = system: human tumor cell lines (NCI60); assay: NCI60 cancer cell line screen; type: cell-based
Description: To extend the analysis to a more extensive set of cancer cell lines, PPDA-001 was submitted to the National Cancer Institute's Division of Cancer Treatment and Diagnosis in vitro screen of human tumor cell lines (http://dtp.nci.nih.gov/branches/btb/ivclsp.html).
Each line represents one cell line.

HCT116 tumour xenograft = HCT116 tumour xenograft study; type: in vivo, female Balb/c nu/nu mice
[2] = system: phospho-ER S118 in MCF-7 cells; assay: Immunoblot of ER serine-118 phosphorylation in MCF-7 cells; type: cell-based; details: 1 μmol/L, time course, FIG. 6
Protocol: Cell lysates were prepared by the addition of RIPA buffer (Sigma-Aldrich, cat no: R0278). Immunoblotting was carried out using standard methods (see, e.g., Harlow & Lane, 1988, Antibodies: A Laboratory Manual, Cold Spring Harbor Laboratory Press, USA), with antibodies for the protein or phosphorylation mark indicated. β-actin was used as control for protein loading. The second antibody was HRP-coupled Goat anti Mouse or Rabbit IgG.

[3] = ATP at Km, read-out: In vitro Kinase Inhibition CDK1 IC50
[4] = 72 hours, SRB assay, read-out: Growth Inhibition, GI50 MCF7
[5] = 72 hours, SRB assay, read-out: Growth Inhibition, GI50 HCT116

T3 sequence (P50613 whole entry): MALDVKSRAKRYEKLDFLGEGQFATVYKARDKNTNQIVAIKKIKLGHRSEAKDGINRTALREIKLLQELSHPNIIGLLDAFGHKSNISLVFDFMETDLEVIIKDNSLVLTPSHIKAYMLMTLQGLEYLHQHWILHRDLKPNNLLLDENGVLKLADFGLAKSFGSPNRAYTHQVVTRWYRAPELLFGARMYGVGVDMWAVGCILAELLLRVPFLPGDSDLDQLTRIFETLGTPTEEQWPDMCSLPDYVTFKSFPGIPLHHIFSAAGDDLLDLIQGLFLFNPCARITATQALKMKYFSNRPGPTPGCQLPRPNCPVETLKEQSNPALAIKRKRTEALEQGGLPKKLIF
T3 sequence (P51946 whole entry partner): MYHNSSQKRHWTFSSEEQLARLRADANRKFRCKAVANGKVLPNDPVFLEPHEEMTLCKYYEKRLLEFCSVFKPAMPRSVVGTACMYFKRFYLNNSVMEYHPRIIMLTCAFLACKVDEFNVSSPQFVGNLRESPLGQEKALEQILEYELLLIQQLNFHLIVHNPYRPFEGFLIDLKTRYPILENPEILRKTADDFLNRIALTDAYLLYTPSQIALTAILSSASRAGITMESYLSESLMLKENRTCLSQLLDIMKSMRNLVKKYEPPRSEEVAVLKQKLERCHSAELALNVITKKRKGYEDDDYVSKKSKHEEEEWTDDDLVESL
T3 sequence (P51948 whole entry partner): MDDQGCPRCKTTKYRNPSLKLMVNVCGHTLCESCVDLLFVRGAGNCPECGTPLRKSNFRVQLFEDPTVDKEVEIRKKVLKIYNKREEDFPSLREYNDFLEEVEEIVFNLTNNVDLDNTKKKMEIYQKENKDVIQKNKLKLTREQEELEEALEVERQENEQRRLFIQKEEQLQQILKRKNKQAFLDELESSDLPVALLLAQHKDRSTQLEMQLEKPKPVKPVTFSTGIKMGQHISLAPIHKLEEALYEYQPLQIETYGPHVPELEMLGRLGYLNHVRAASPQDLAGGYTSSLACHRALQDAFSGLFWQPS
T6 sequence (Q00534 whole entry): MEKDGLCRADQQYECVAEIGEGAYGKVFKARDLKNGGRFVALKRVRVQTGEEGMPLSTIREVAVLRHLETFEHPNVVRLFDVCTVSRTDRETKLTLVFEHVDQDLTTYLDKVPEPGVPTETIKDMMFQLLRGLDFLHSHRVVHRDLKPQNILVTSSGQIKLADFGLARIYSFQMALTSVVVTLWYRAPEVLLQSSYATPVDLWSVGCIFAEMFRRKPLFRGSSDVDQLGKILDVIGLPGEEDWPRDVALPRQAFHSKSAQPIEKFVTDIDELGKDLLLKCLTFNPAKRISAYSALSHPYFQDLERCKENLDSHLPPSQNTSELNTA
T6 sequence (P24385 whole entry partner): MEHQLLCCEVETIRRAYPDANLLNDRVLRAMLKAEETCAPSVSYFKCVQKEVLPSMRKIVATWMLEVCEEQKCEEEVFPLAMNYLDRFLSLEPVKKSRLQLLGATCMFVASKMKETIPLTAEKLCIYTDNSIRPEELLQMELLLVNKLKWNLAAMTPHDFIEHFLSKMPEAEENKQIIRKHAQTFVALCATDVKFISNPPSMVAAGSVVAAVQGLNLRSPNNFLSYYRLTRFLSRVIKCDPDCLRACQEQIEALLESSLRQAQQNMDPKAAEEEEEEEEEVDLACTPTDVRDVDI
T4 sequence (P11802 whole entry): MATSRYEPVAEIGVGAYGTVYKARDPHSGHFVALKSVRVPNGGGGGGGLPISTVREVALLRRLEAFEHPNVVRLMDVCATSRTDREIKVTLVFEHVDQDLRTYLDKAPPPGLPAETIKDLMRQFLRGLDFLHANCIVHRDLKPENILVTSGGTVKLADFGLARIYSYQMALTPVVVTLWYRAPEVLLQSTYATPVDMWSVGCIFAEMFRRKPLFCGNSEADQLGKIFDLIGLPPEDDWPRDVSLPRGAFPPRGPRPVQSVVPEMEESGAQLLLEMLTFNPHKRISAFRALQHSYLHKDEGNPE
T4 sequence (P24385 whole entry partner): as the sequence (P24385 whole entry partner) above
T5 sequence (Q00535 whole entry): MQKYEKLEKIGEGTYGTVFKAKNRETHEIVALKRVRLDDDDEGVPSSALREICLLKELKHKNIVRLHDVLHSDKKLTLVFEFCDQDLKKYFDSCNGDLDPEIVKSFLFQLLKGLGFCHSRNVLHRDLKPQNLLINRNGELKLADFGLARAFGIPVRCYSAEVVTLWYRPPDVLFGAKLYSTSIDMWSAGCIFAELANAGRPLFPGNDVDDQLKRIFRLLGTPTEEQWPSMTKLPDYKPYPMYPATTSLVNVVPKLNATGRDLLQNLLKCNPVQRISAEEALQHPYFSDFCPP
T5 sequence (Q15078 whole entry partner): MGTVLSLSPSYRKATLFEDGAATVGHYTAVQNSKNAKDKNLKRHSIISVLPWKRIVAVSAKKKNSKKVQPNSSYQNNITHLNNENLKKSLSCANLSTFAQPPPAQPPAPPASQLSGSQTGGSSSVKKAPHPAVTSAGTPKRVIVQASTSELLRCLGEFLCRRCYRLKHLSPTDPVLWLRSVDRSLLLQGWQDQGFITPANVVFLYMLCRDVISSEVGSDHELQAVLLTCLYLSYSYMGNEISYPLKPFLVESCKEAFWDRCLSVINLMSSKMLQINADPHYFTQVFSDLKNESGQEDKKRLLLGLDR

IC50 (CDK1/cycA1; [3]) [nM]	IC50 (CDK2/cycA1) [nM]	IC50 (CDK7/CycH/MAT1) [nM]	Selectivity CDK1/CDK7 (CDK7/CycH/MAT1) [fold]	Selectivity CDK2/CDK7 (CDK7/CycH/MAT1) [fold]	GI50 (MCF7 cells; [4]) [nM]	GI50 (HCT116 cells; [5]) [nM]	IC50 (CDK1/cycA1) [nM]	IC50 (CDK4/cycD1) [nM]	IC50 (CDK5/p35NCK) [nM]	IC50 (CDK6/cycD1) [nM]	GI50 (MCF7 cells; read-out: GI50, breast (MCF7) cancer cell line) [nM]	GI50 (HCT116 cells; read-out: GI50, colorectal (HCT116) cancer cell line) [nM]	Structure (SMILES)	GI50 ([1]; mean of all 60 cell lines, read-out: mean GI50 over 60 cancer cell lines) [nM]	GI50 ([1]; range over all 60 cell lines, read-out: range GI50 over 60 cancer cell lines) [nM]	reduction in tumor growth (HCT116 tumour xenograft; 50 mg/kg/bi-daily and 100 mg/kg once daily PO, compared with the control arms) [%]	Animal weight (percent body weight) (HCT116 tumour xenograft; PPDA-001 treatment arms (50 mg/kg bi-daily, 100 mg/kg once daily, PO), over the course of the study, vehicle 98%) [%]	phosphorylation of ER at serine-118 (phospho-ER S118) [2]
41	1	14	2.9	0.1	100	900	–	–	–	–	–	–	CC(C)c1cnn2c(NCc3ccccc3)cc(NCC3(CO)CCNC3)nc12 (racemic) [PPDA-018, (3-((7-(Benzylamino)-3-iso-propylpyrazolo [1,5-a]pyrimidin-5ylamino)methyl)pyrrolidin-3-yl)methanol hydrochloride]	–	–	–	–	–
74	118	484	0.2	0.2	500	1600	–	–	–	–	–	–	CC(C)c1cnn2c(NCc3ccccc3Br)cc(NCC3(O)CCNCC3)nc12 [PPDA-012]	–	–	–	–	–
162	203	89	1.8	2.3	2000	10700	–	–	–	–	–	–	CC(C)c1cnn2c(NCc3ccccc3)cc(N[C@@H]3CN[C@H](CO)C3)nc12 [PPDA-026, ((2S,4S)-4-(7-(Benzylamino)-3-iso-propylpyrazolo[1,5-a]pyrimidin-5-ylamino)pyrrolidin-2-yl)methanol hydrochloride]	–	–	–	–	–
8680	481	975	8.9	0.5	45600	53500	–	–	–	–	–	–	CC(C)c1cnn2c(NCC3CCCCC3)cc(NC[C@]3(O)CCNC[C@H]3O)nc12 (racemic) [PPDA-014]	–	–	–	–	–
3620	115	788	4.6	0.1	11900	25000	–	–	–	–	–	–	CC(C)c1cnn2c(NCc3ccncc3)cc(NCC3(O)CCNCC3)nc12 [PPDA-010, 4-(((3-iso-Propyl-7-((pyridin-4-ylmethyl)amino)pyrazolo[1,5-a]pyrimidin-5-yl)amino)methyl)piperidin-4-ol hydrochloride]	–	–	–	–	–
1460	4550	246	5.9	18	13100	7400	–	–	–	–	–	–	CC(C)c1cnn2c(NCC3CCCCC3)cc(N[C@H]3CNC[C@H]3O)nc12 [PPDA-016]	–	–	–	–	–
1900	568	73	26	7.8	3700	10400	–	–	–	–	–	–	CC(C)c1cnn2c(NCc3ccccc3)cc(N[C@@H]3CNCC[C@H]3O)nc12 [PPDA-022, (3R,4R)-3-(7-(Benzylamino)-3-iso-propyl-pyrazolo[1,5-a]pyrimidin-5-ylamino) piperidin-4-ol]	–	–	–	–	–
–	–	–	–	–	960	630	1520	42100	9000	32100	< 1000	< 1000	CC(C)c1cnn2c(NCc3ccccc3)cc(NC[C@H]3CCNC[C@@H]3O)nc12 [PPDA-001, (3R,4R)-4-(((7-(Benzylamino)-3-isopropylpyrazolo[1,5-a]pyrimidin-5-yl)amino)methyl)piperidin-3-ol hydrochloride]	280	40 to 2100	65	92	inhibits phosphorylation of ER at serine-118
1150	503	461	2.5	1.1	2100	4100	–	–	–	–	–	–	CC(C)c1cnn2c(Nc3ccc(N4CCN(C)CC4)cc3)cc(NC[C@H]3CCNC[C@@H]3O)nc12 [PPDA-007, (3R,4R)-4-((3-iso-Propyl-7-(4-(4-methylpiperazin-1-yl)phenylamino)pyrazolo[1,5-a]pyrimidin-5-ylamino)methyl)piperidin-3-ol hydrochloride]	–	–	–	–	–
177	22	81	2.2	0.3	200	1200	–	–	–	–	–	–	CC(C)c1cnn2c(NCc3ccccc3Cl)cc(NC[C@@]3(CO)CCNC3)nc12 (racemic) [PPDA-021]	–	–	–	–	–

Structure (SMILES)	IC50 (CDK1/cycA1; [3]) [nM]	IC50 (CDK2/cycA1) [nM]	IC50 (CDK7/CycH/MAT1) [nM]	Selectivity CDK1/CDK7 (CDK7/CycH/MAT1) [fold]	Selectivity CDK2/CDK7 (CDK7/CycH/MAT1) [fold]	GI50 (MCF7 cells; [4]) [nM]	GI50 (HCT116 cells; [5]) [nM]	IC50 (CDK1/cycA1) [nM]	IC50 (CDK4/cycD1) [nM]	IC50 (CDK5/p35NCK) [nM]	IC50 (CDK6/cycD1) [nM]	GI50 (MCF7 cells; read-out: GI50, breast (MCF7) cancer cell line) [nM]	GI50 (HCT116 cells; read-out: GI50, colorectal (HCT116) cancer cell line) [nM]	GI50 ([1]; mean of all 60 cell lines, read-out: mean GI50 over 60 cancer cell lines) [nM]	GI50 ([1]; range over all 60 cell lines, read-out: range GI50 over 60 cancer cell lines) [nM]	reduction in tumor growth (HCT116 tumour xenograft; 50 mg/kg/bi-daily and 100 mg/kg once daily PO, compared with the control arms) [%]	Animal weight (percent body weight) (HCT116 tumour xenograft; PPDA-001 treatment arms (50 mg/kg bi-daily, 100 mg/kg once daily, PO), over the course of the study, vehicle 98%) [%]	phosphorylation of ER at serine-118 (phospho-ER S118) [2]
CC(C)c1cnn2c(Nc3csc4ccccc34)cc(NC[C@H]3CCNC[C@@H]3O)nc12 [PPDA-008]	2950	42	120	25	0.4	3100	5100	–	–	–	–	–	–	–	–	–	–	–
